Drawing on BindingDB's records for doi:10.1007/s00044-004-0120-9 (n/a, 2004), this text covers Ki for one compound.

The target in the test is T1, Alpha-1A adrenergic receptor (Homo sapiens, UniProt P35348).
T1 sequence (P35348 whole entry): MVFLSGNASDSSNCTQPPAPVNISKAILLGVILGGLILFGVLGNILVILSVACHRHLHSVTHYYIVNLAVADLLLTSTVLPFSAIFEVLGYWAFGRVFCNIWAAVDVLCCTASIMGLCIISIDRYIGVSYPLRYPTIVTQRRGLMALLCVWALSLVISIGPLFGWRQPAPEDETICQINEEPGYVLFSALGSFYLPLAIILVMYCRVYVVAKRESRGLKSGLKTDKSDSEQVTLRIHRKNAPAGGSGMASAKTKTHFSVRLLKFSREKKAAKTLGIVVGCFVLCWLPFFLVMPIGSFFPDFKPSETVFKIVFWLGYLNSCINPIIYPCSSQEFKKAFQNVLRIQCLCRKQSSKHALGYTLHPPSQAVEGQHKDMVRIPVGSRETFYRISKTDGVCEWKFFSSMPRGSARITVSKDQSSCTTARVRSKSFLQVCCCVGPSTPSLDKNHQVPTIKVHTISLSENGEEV
In words: Binding affinity to Homo sapiens (human) alpha1A adrenergic receptor.

`CCC1=C(C(N)=O)C(c2ccc([N+](=O)[O-])cc2)C(C(=O)NCCCN2CCC(c3ccccc3)(c3ccccc3)CC2)=C(CC)N1` (stereo unspecified) came in with a Ki of 1.1 nM.
